Patent US9487510B2, “Substituted heterocyclic acetamides as kappa opioid receptor (KOR) agonists” (Dr. Reddy's Laboratories Ltd., priority 2012, dated 2016)

Molecular target: human KOR receptor (Homo sapiens, UniProt P41145)
Assay: IP-One HTRF assay, potency of KOR agonists, dose-response in transiently transfected COS-7 cells
Format: cell-based

Sequence of human KOR receptor (P41145 whole entry): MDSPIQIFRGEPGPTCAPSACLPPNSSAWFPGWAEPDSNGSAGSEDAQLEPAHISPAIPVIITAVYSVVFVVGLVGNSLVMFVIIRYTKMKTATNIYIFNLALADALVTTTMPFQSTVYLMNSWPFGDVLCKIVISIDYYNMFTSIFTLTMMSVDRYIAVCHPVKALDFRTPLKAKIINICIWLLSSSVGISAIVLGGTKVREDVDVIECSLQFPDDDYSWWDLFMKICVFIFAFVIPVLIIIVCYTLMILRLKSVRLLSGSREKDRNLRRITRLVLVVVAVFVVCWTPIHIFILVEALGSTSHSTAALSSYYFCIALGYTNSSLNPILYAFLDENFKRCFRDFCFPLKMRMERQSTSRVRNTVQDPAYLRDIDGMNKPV

SMILES	EC50 [nM]
CN(C(=O)Cc1ccc2sc(=O)[nH]c2c1)[C@H](CN1CC[C@H](O)C1)c1cccc(C(N)=O)c1 [Example 19, 3-((S)-2-((S)-3-hydroxypyrrolidin-1-yl)-1-(N-methyl-2-(2-oxo-2,3-dihydrobenzo [d]thiazol-5-yl)acetamido)ethyl)benzamide]	≤ 50
CN(C(=O)Cc1ccc2c(c1)N(C)S(=O)(=O)C2)[C@H](CN1CC[C@H](O)C1)c1cccc(-c2nn[nH]n2)c1 [Example 21, N-((S)-1-(3-(1H-tetrazol-5-yl)phenyl)-2-((S)-3-hydroxypyrrolidin-1-yl)ethyl)-N-methyl-2-(1-methyl-2,2-dioxido-1,3-dihydrobenzo[c]isothiazol-6-yl)acetamide]	51 to 100
CN(C(=O)Cc1ccc2c(c1)NC(=O)CS2(=O)=O)[C@H](CN1CC[C@H](O)C1)c1cccc(OCC(=O)O)c1 [Example 22, 2-(3-((S)-1-(2-(1,1-dioxido-3-oxo-3,4-dihydro-2H-benzo[b][1,4]thiazin-6-yl)-N-methylacetamido)-2-((S)-3-hydroxypyrrolidin-1-yl)ethyl)phenoxy)acetic acid]	≤ 50
CN(C(=O)Cc1ccc2c(c1)NC(=O)C2)[C@H](CN1CC[C@H](O)C1)c1cccc(C(=O)O)c1 [Example 23, 3-((S)-2-((S)-3-hydroxypyrrolidin-1-yl)-1-(N-methyl-2-(2-oxoindolin-6-yl)acetamido)ethyl) benzoic acid]	≤ 50
CN(C(=O)Cc1ccc2c(c1)NC(=O)C2)[C@H](CN1CC[C@H](O)C1)c1cccc(C(N)=O)c1 [Example 24, 3-((S)-2-((S)-3-hydroxypyrrolidin-1-yl)-1-(N-methyl-2-(2-oxoindolin-6-yl)acetamido)ethyl) benzamide]	≤ 50
CN(C(=O)Cc1ccc2c(c1)NC(=O)C2)[C@H](CN1CC[C@H](F)C1)c1cccc(C#N)c1 [Example 25, N-((S)-1-(3-cyanophenyl)-2-((S)-3-fluoropyrrolidin-1-yl)ethyl)-N-methyl-2-(2-oxoindolin-6-yl)acetamide]	≤ 50
CN(C(=O)Cc1ccc2c(c1)NC(=O)C2)[C@H](CN1CC[C@H](O)C1)c1cccc(OCC(N)=O)c1 [Example 26, N-((S)-1-(3-(2-amino-2-oxoethoxy)phenyl)-2-((S)-3-hydroxypyrrolidin-1-yl)ethyl)-N-methyl-2-(2-oxoindolin-6-yl)acetamide]	≤ 50
CN(C(=O)Cc1ccc2c(c1)NC(=O)C2)[C@H](CN1CC[C@H](O)C1)c1cccc(OCC(=O)NS(C)(=O)=O)c1 [Example 27, N-((S)-2-((S)-3-hydroxypyrrolidin-1-yl)-1-(3-(2-(methylsulfonamido)-2-oxoethoxy)phenyl)ethyl)-N-methyl-2-(2-oxoindolin-6-yl)acetamide]	51 to 100
CN(C(=O)Cc1ccc2c(c1)NC(=O)C2)[C@H](CN1CC[C@H](F)C1)c1cccc(C(=O)O)c1 [Example 28, 3-((S)-2-((S)-3-fluoropyrrolidin-1-yl)-1-(N-methyl-2-(2-oxoindolin-6-yl)acetamido)ethyl) benzoic acid]	101 to 1000
CN(C(=O)Cc1ccc2c(c1)NC(=O)C2)[C@H](CN1CC[C@H](F)C1)c1cccc(OCC(=O)O)c1 [Example 29, 2-(3-((S)-2-((S)-3-fluoropyrrolidin-1-yl)-1-(N-methyl-2-(2-oxoindolin-6-yl)acetamido)ethyl)phenoxy)acetic acid]	≤ 50
CN(C(=O)Cc1ccc2c(c1)NC(=O)C2)[C@H](CN1CC[C@H](F)C1)c1cccc(OCC(N)=O)c1 [Example 30, N-((S)-1-(3-(2-amino-2-oxoethoxy)phenyl)-2-((S)-3-fluoropyrrolidin-1-yl)ethyl)-N-methyl-2-(2-oxoindolin-6-yl)acetamide]	≥ 1000
CN(C(=O)Cc1ccc2ncc(=O)[nH]c2c1)[C@H](CN1CC[C@H](O)C1)c1cccc(C(=O)O)c1 [Example 31, 3-((S)-2-((S)-3-hydroxypyrrolidin-1-yl)-1-(N-methyl-2-(3-oxo-3,4-dihydroquinoxalin-6-yl)acetamido)ethyl)benzoic acid]	≤ 50
CN(C(=O)Cc1ccc2c(c1)NC(=O)CS2)[C@H](CN1CC[C@H](O)C1)c1cccc(C(N)=O)c1 [Example 32, 3-((S)-2-((S)-3-hydroxypyrrolidin-1-yl)-1-(N-methyl-2-(3-oxo-3,4-dihydro-2H-benzo[b][1,4]thiazin-6-yl)acetamido)ethyl)benzamide]	≤ 50
CN(C(=O)Cc1ccc2ncc(=O)[nH]c2c1)[C@H](CN1CC[C@H](O)C1)c1cccc(-c2noc(C(F)(F)F)n2)c1 [Example 34, N-((S)-2-((S)-3-hydroxypyrrolidin-1-yl)-1-(3-(5-(trifluoromethyl)-1,2,4-oxadiazol-3-yl)phenyl)ethyl)-N-methyl-2-(3-oxo-3,4-dihydroquinoxalin-6-yl)acetamide]	≤ 50
Cc1nc(-c2cccc([C@@H](CN3CC[C@H](O)C3)N(C)C(=O)Cc3ccc4c(c3)NC(=O)C4)c2)no1 [Example 35, N-((S)-2-((S)-3-hydroxypyrrolidin-1-yl)-1-(3-(5-methyl-1,2,4-oxadiazol-3-yl)phenyl)ethyl)-N-methyl-2-(2-oxoindolin-6-yl)acetamide]	≤ 50
CN(C(=O)Cc1ccc2c(c1)NC(=O)C2)[C@H](CN1CC[C@H](O)C1)c1cccc(-c2nccs2)c1 [Example 36, N-((S)-2-((S)-3-hydroxypyrrolidin-1-yl)-1-(3-(thiazol-2-yl)phenyl)ethyl)-N-methyl-2-(2-oxoindolin-6-yl)acetamide]	51 to 100
CCC#Cc1cccc([C@@H](CN2CC[C@H](O)C2)N(C)C(=O)Cc2ccc3c(c2)NS(=O)(=O)C3)c1 [Example 37, N-((S)-1-(3-(but-1-yn-1-yl)phenyl)-2-((S)-3-hydroxypyrrolidin-1-yl)ethyl)-2-(2,2-dioxido-1,3-dihydrobenzo[c]isothiazol-6-yl)-N-methylacetamide]	≤ 50
CN(C(=O)Cc1ccc2c(c1)NC(=O)C2)[C@H](CN1CC[C@H](O)C1)c1cccc(C(=O)NCC(F)(F)F)c1 [Example 38, 3-((S)-2-((S)-3-hydroxypyrrolidin-1-yl)-1-(N-methyl-2-(2-oxoindolin-6-yl)acetamido)ethyl)-N-(2,2,2-trifluoroethyl)benzamide]	≤ 50
CCN(CC)C(=O)c1cccc([C@@H](CN2CC[C@H](O)C2)N(C)C(=O)Cc2ccc3c(c2)NC(=O)C3)c1 [Example 39, N,N-diethyl-3-((S)-2-((S)-3-hydroxypyrrolidin-1-yl)-1-(N-methyl-2-(2-oxoindolin-6-yl)acetamido)ethyl)benzamide]	≤ 50
CN(C)C(=O)c1cccc([C@@H](CN2CC[C@H](O)C2)N(C)C(=O)Cc2ccc3sc(=O)[nH]c3c2)c1 [Example 40, 3-((S)-2-((S)-3-hydroxypyrrolidin-1-yl)-1-(N-methyl-2-(2-oxo-2,3-dihydrobenzo[d]thiazol-5-yl)acetamido)ethyl)-N,N-dimethylbenzamide-2,2,2-trifluoroacetate]	≤ 50
CCN(CC)C(=O)COc1cccc([C@@H](CN2CC[C@H](O)C2)N(C)C(=O)Cc2ccc3c(c2)NC(=O)C3)c1 [Example 41, N-((S)-1-(3-(2-(diethylamino)-2-oxoethoxy)phenyl)-2-((S)-3-hydroxypyrrolidin-1-yl)ethyl)-N-methyl-2-(2-oxoindolin-6-yl)acetamide]	≤ 50
CCN(CC)C(=O)COc1cccc([C@@H](CN2CC[C@H](O)C2)N(C)C(=O)Cc2ccc3sc(=O)[nH]c3c2)c1 [Example 42, N-((S)-1-(3-(2-(diethylamino)-2-oxoethoxy)phenyl)-2-((S)-3-hydroxypyrrolidin-1-yl)ethyl)-N-methyl-2-(2-oxo-2,3-dihydrobenzo[d]thiazol-5-yl)acetamide]	≤ 50
CN(C(=O)Cc1ccc2c(c1)NC(=O)C2)[C@H](CN1CC[C@H](O)C1)c1cc(F)cc(-c2nccs2)c1 [Example 43, N-((S)-1-(3-fluoro-5-(thiazol-2-yl)phenyl)-2-((S)-3-hydroxypyrrolidin-1-yl)ethyl)-N-methyl-2-(2-oxoindolin-6-yl)acetamide]	≤ 50
CN(C(=O)Cc1ccc2c(c1)NC(=O)C2)[C@H](CN1CC[C@H](O)C1)c1cccc(-c2nnn(C)n2)c1 [Example 44, N-((S)-2-((S)-3-hydroxypyrrolidin-1-yl)-1-(3-(2-methyl-2H-tetrazol-5-yl)phenyl)ethyl)-N-methyl-2-(2-oxoindolin-6-yl)acetamide]	51 to 100
CC(C)(C(=O)N[C@H](CN1CC[C@H](O)C1)c1ccccc1)c1ccc2oc(=O)[nH]c2c1 [Example 55, N-((S)-2-((S)-3-hydroxypyrrolidin-1-yl)-1-phenylethyl)-2-methyl-2-(2-oxo-2,3-dihydrobenzo[d]oxazol-5-yl)propanamide]	≤ 50
O=C(Cc1ccc2oc(=O)[nH]c2c1)NC(CN1CCCC1)c1cnn(Cc2ccccc2)c1 (stereo not drawn) [Example 62, N-(1-(1-benzyl-1H-pyrazol-4-yl)-2-(pyrrolidin-1-yl)ethyl)-2-(2-oxo-2,3-dihydrobenzo[d]oxazol-5-yl)acetamide]	≤ 50
CN(C(=O)Cc1ccc2oc(=O)n(Cc3ccccc3)c2c1)[C@H](CN1CCCC1)c1cccc(OCc2ccccc2)c1 [Example 64, (S)-2-(3-benzyl-2-oxo-2,3-dihydrobenzo[d]oxazol-5-yl)-N-(1-(3-(benzyloxy)phenyl)-2-(pyrrolidin-1-yl)ethyl)-N-methylacetamide]	≤ 50
CN(C(=O)Cc1ccc2oc(=O)n(Cc3cccc(C#N)c3)c2c1)[C@H](CN1CC[C@H](O)C1)c1ccccc1 [Example 66, 2-(3-(3-cyanobenzyl)-2-oxo-2,3-dihydrobenzo[d]oxazol-5-yl)-N-((S)-2-((S)-3-hydroxypyrrolidin-1-yl)-1-phenylethyl)-N-methylacetamide]	≤ 50
CN(C(=O)Cc1ccc2oc(=O)n(Cc3ccc(C#N)cc3)c2c1)[C@H](CN1CC[C@H](O)C1)c1ccccc1 [Example 75, 2-(3-(4-cyanobenzyl)-2-oxo-2,3-dihydrobenzo[d]oxazol-5-yl)-N-((S)-2-((S)-3-hydroxypyrrolidin-1-yl)-1-phenylethyl)-N-methylacetamide]	≤ 50
CN(C(=O)Cc1ccc2c(c1)NS(=O)(=O)C2)[C@H](CN1CC[C@H](O)C1)c1cccc(-c2nn[nH]n2)c1 [Example 79, N-((S)-1-(3-(1H-tetrazol-5-yl)phenyl)-2-((S)-3-hydroxypyrrolidin-1-yl)ethyl)-2-(2,2-dioxido-1,3-dihydrobenzo[c]isothiazol-6-yl)-N-methylacetamide]	≤ 50
